Experiment [1] has as its system HLEpiC. The experiment in a line: Inhibitory action on cell migration (Oris Cell Migration plate). It is filed as cell-based, human. The conditions noted are these: about 24 and 48 hours after treatment. As for the experimental part: HLEpiC was diluted with a medium (Epithelial Cell Medium) and dispensed to Poly-L-lysine coated Oris™ Cell Migration 96 well plate, to which a stopper was firmly attached, at 50 μL/well (25000 cells/well) and cultured in a carbon dioxide incubator (37° C., 5% CO2) for 24 hours. The stopper was removed, and after brief washing with the medium, a solution obtained by adding 5 μL of 10 mM Cell Tracker Green Fluorescent Probe (Lonza Walkersville, Inc.) to 4995 μL of the medium was added at 100 μL/well, and the cells were stained in a carbon dioxide incubator (37° C., 5% CO2) for about 30 minutes. After brief washing with the medium, the medium was further added and the cells were cultured in a carbon dioxide incubator (37° C., 5% CO2) for about 30 minutes.
After brief washing with the medium, a test substance, a positive control, a comparative control or the medium (control) at each concentration given below was added at 100 μL/well.
Test substance: Ripasudil with a concentration of […], 100 μM or 1 mM,
Positive control: CD with a concentration of 2 μM,
These were cultured in a carbon dioxide incubator (37° C., 5% CO2). The state of HLEpiC in the Detection Zone in each sample was observed by a confocal laser scanning microscope about 24 hours after the treatment and 48 hours after the treatment.

Another experiment has as its system Normal human fibroblasts. Description: Cytostatic action, BrdU uptake (Cell Proliferation ELISA). The format is cell-based. As to conditions: dermal fibroblast proliferation, 2 days. As for the experimental part: Normal human fibroblasts (Sanko Junyaku Co., Ltd.) were seeded at 2000 cells/well and cultured overnight. Next day, the medium (FGM-2 (Sanko Junyaku Co., Ltd.)) was exchanged (150 μL), and 10 μL of Ripasudil was then added so that the final concentration was 0.1 μM, 1 μM and 10 μM. After culturing for 2 days, 10 μL of BrdU (58.8-fold diluted solution: an undiluted solution is a 1000-fold solution) was added, and the cells were cultured for 2 hours. OD540-620 was measured using a plate reader after fixation and antibody addition, washing and coloring, and reaction termination in accordance with the protocol of Cell Proliferation ELISA BrdU kit (Roche), and an action on proliferation was evaluated. A value in a sample in which Ripasudil is not added is considered as 100%, and the uptake rate of BrdU under each condition is shown in Table 2.
Background: An ELISA detects its analyte on a solid surface through an enzyme-linked reagent.

Experiment [2] deals with Human lens epithelial cells (HLEpiC). Description: Inhibitory action on actin stress fiber formation (phalloidin staining, confocal microscopy). The format is cell-based. The conditions noted are these: treated about an hour. The procedure: Human lens epithelial cells (HLEpiC (ScienCell Research Laboratories)) were diluted with a medium (Epithelial Cell Medium (ScienCell Research Laboratories)), dispensed to each well of Poly-L-lysine (ScienCell Research Laboratories) coated Imaging Chamber CG at 100 μL/well (about 5000 cells/cm^2), and cultured in a carbon dioxide incubator (37° C., 5% CO2) until about 50% confluent. The medium was removed with vacuum suction and a test substance, a positive control, a comparative control, or the medium (control) at each concentration given below was added to each well at 300 μL/well:
Test substance: Ripasudil with a concentration of 10 μM, 100 μM or 1 mM,
Positive control: Cytochalasin D with a concentration of 2 μM,
These were treated in a carbon dioxide incubator (37° C., 5% CO2) for about an hour, and then washed once with the medium. 4% Paraformaldehyde Phosphate Buffer Solution (Wako Pure Chemical Industries, Ltd.) (hereinafter, referred to as a fixative solution) was added at 300 μL/well, and fixation was carried out at room temperature for 2 minutes. After washing with the medium, 0.5% Triton X-100 (Roche Diagnostics K.K.) was added at 300 μL/well, and penetrated at room temperature for 2 minutes. After washing with the medium, the fixative solution was added at 300 μL/well, and fixation was carried out at room temperature for 20 minutes.
Separately, 25 μL of 14 μM Actin-Stain™ 555 phalloidin (Cytoskeleton, Inc.) (hereinafter, referred to as Phalloidin) was added to 3475 μL of 10 mM phosphate buffered saline (Wako Pure Chemical Industries, Ltd.) to produce 100 nM Phalloidin.
This 100 nM Phalloidin was added to each well washed with the medium at 200 μL/well, and staining was carried out at room temperature in a dark place for about 60 minutes.
After washing with the medium, the chamber was removed, and […] Mounting Medium with DAPI (Vector Laboratories, Inc.) was dropped onto a cover glass with a few drops. A slide glass was placed thereon and this was left to stand at room temperature in a dark place for 30 minutes or more, and adhesion and nuclear staining were carried out and then observed by a confocal laser scanning microscope.

Experiment [3] has as its system HLEpiC. Description: Reversibility of inhibition of cell migration after removal. As to conditions: for time after removal at which Detection Zone was filled with HLEpiC: then removal. The format is cell-based, human. The procedure: After the operation in Example 4, the test substance, the positive control, or the comparative control was removed, and after brief washing with the medium, the medium was added at 100 μL/well, and the cells were cultured in a carbon dioxide incubator (37° C., 5% CO2).

Turning to `C[C@H]1CNCCCN1S(=O)(=O)c1cccc2cncc(F)c12` [Ripasudil, 4-fluoro-5-{[(2S)-2-methyl-1,4-diazepan-1-yl]sulfonyl}isoquinoline], the results for the “cell migration into Detection Zone (observation)” value with HLEpiC [1] (100 μM) and with HLEpiC [1] (1 mM) were “tendency of inhibition of cell migration” and “definite inhibitory action on cell migration”, respectively. Further, the “Uptake rate of BrdU (% of control)” value with Normal human fibroblasts (Ripasudil 0.1 μM) is 80.0 % of control; with Normal human fibroblasts (Ripasudil 1.0 μM), 59.3 % of control; with Normal human fibroblasts (Ripasudil 10.0 μM), 10.9 % of control. Moreover, the “actin stress fibers (observation)” value in experiment [2] (10 μM) was “slightly disappear”; in experiment [2] (100 μM), “significantly disappear”; in experiment [2] (1 mM), “significantly disappear”. Also, the “time after removal at which Detection Zone was filled with HLEpiC” value was “about 24 hours” with HLEpiC [3] (100 μM treatment) and 116 h in the experiment on HLEpiC [3] (1 mM treatment). The “state of Detection Zone about 48 hours after removal” value in the experiment on HLEpiC [3] (1 mM treatment, about 48 hours after removal) is recorded as “not filled with HLEpiC”.
